Results from publication PMC6009956, “Design, synthesis and biological activity of N^4-phenylsubstituted-7H-pyrrolo[2,3-d]pyrimidin-4-amines as dual inhibitors of aurora kinase A and epidermal growth factor receptor kinase” (Journal of Enzyme Inhibition and Medicinal Chemistry, 2017).
Read-outs that look alike come from different tables or passages of the source. Values belong to the molecule of their own block, whether it stands above or below them.

Key:
aurora A kinase (AURKA) = target: T1, aurora A kinase (AURKA) (Homo sapiens, UniProt O14965); assay: ADP-Glo kinase assay, Aurora A; assay type: biochemical
T1 construct: purchased BPS Bioscience (assay run externally by the vendor)
T1 sequence (O14965 1-403): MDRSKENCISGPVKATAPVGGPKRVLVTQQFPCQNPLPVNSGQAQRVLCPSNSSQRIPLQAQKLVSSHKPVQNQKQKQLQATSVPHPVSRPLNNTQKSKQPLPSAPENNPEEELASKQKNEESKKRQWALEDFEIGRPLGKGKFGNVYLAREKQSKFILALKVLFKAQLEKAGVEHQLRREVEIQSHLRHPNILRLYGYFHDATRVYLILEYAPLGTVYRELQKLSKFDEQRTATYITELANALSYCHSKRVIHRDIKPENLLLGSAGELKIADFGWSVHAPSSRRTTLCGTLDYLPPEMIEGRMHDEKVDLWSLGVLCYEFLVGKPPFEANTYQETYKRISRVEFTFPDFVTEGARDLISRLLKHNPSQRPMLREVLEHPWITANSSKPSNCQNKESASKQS

EGFR = EGFR (Homo sapiens, UniProt P00533); assay: ADP-Glo kinase assay, EGFR; assay type: biochemical; parameters: purchased BPS Bioscience (assay run externally by the vendor)
EGFR, sequence (P00533 25-1210): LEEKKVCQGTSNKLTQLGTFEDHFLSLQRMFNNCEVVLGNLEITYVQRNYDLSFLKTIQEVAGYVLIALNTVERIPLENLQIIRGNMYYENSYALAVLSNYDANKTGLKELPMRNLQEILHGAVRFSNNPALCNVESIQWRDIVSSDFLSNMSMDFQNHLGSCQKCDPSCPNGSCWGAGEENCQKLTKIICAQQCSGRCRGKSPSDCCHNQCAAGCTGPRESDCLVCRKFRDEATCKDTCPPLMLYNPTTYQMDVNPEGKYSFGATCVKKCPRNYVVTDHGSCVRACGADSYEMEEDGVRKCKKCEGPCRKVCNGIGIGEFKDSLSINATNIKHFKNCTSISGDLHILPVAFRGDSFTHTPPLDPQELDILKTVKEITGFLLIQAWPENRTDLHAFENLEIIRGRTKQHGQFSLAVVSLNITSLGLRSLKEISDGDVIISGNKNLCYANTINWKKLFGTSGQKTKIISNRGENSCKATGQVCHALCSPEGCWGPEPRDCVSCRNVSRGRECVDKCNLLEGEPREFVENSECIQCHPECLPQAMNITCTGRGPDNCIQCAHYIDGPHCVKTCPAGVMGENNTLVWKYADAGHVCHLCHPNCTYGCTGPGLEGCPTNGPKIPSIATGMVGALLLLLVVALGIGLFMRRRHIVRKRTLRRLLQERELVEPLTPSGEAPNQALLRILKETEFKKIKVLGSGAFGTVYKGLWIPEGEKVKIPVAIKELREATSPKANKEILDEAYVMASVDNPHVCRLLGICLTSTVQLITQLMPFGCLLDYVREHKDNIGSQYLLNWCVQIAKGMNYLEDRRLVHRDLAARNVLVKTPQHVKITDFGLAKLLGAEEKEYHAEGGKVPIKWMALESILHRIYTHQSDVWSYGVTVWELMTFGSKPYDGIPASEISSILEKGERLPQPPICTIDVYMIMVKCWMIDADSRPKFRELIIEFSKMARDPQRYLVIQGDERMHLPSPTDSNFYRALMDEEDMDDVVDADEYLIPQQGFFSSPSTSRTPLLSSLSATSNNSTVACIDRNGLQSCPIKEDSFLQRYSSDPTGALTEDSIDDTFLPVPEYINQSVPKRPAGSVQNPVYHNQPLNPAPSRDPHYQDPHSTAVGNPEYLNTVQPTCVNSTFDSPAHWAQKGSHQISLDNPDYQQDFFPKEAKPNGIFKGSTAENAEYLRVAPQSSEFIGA

[1] = 10 µM ATP, triplicate, read-out: AURKA IC50 ± SD
[2] = 10 µM ATP/0.2 mg/ml Kemptide, read-out: Aurora A IC50 (dose-response curve, supplement)
[3] = 10 µM ATP, triplicate, read-out: EGFR IC50 ± SD
[4] = 10 µM ATP/0.2 mg/ml Poly-Glu-Tyr, read-out: EGFR IC50 (dose-response curve, supplement)

- IC50 (aurora A kinase (AURKA); [1]): 5.45 ± 0.36 µM
- IC50 (aurora A kinase (AURKA); [2]): 5.4 µM
- Aurora A % Activity Set1 (aurora A kinase (AURKA); Log[nM] 0): 101%
- Aurora A % Activity Set2 (aurora A kinase (AURKA); Log[nM] 0): 103%
- Aurora A % Activity Set3 (aurora A kinase (AURKA); Log[nM] 0): 105%
- Aurora A % Activity Set1 (aurora A kinase (AURKA); Log[nM] 1.0): 114%
- Aurora A % Activity Set2 (aurora A kinase (AURKA); Log[nM] 1.0): 103%
- Aurora A % Activity Set3 (aurora A kinase (AURKA); Log[nM] 1.0): 107%
- Aurora A % Activity Set1 (aurora A kinase (AURKA); Log[nM] 1.5): 111%
- Aurora A % Activity Set2 (aurora A kinase (AURKA); Log[nM] 1.5): 103%
- Aurora A % Activity Set3 (aurora A kinase (AURKA); Log[nM] 1.5): 109%
- Aurora A % Activity Set1 (aurora A kinase (AURKA); Log[nM] 2.0): 102%
- Aurora A % Activity Set2 (aurora A kinase (AURKA); Log[nM] 2.0): 107%
- Aurora A % Activity Set3 (aurora A kinase (AURKA); Log[nM] 2.0): 114%
- Aurora A % Activity Set1 (aurora A kinase (AURKA); Log[nM] 2.5): 99%
- Aurora A % Activity Set2 (aurora A kinase (AURKA); Log[nM] 2.5): 102%
- Aurora A % Activity Set3 (aurora A kinase (AURKA); Log[nM] 2.5): 110%
- Aurora A % Activity Set1 (aurora A kinase (AURKA); Log[nM] 3.0): 87%
- Aurora A % Activity Set2 (aurora A kinase (AURKA); Log[nM] 3.0): 90%
- Aurora A % Activity Set3 (aurora A kinase (AURKA); Log[nM] 3.0): 91%
- Aurora A % Activity Set1 (aurora A kinase (AURKA); Log[nM] 3.5): 63%
- Aurora A % Activity Set2 (aurora A kinase (AURKA); Log[nM] 3.5): 66%
- Aurora A % Activity Set3 (aurora A kinase (AURKA); Log[nM] 3.5): 61%
- Aurora A % Activity Set1 (aurora A kinase (AURKA); Log[nM] 4.0): 32%
- Aurora A % Activity Set2 (aurora A kinase (AURKA); Log[nM] 4.0): 29%
- Aurora A % Activity Set3 (aurora A kinase (AURKA); Log[nM] 4.0): 30%
- Aurora A % Activity Set1 (aurora A kinase (AURKA); Log[nM] 4.5): 16%
- Aurora A % Activity Set2 (aurora A kinase (AURKA); Log[nM] 4.5): 15%
- Aurora A % Activity Set3 (aurora A kinase (AURKA); Log[nM] 4.5): 13%
- Aurora A % Activity Set1 (aurora A kinase (AURKA); Log[nM] 5.0): 9%
- Aurora A % Activity Set2 (aurora A kinase (AURKA); Log[nM] 5.0): 9%
- Aurora A % Activity Set3 (aurora A kinase (AURKA); Log[nM] 5.0): 9%
- IC50 (EGFR; [3]): 0.667 ± 0.142 µM
- IC50 (EGFR; [4]): 0.693 µM
- EGFR % Activity Set1 (EGFR; Log[nM] 0): 103%
- EGFR % Activity Set2 (EGFR; Log[nM] 0): 98%
- EGFR % Activity Set3 (EGFR; Log[nM] 0): 105%
- EGFR % Activity Set1 (EGFR; Log[nM] 1.0): 112%
- EGFR % Activity Set2 (EGFR; Log[nM] 1.0): 109%
- EGFR % Activity Set3 (EGFR; Log[nM] 1.0): 103%
- EGFR % Activity Set1 (EGFR; Log[nM] 1.5): 113%
- EGFR % Activity Set2 (EGFR; Log[nM] 1.5): 108%
- EGFR % Activity Set3 (EGFR; Log[nM] 1.5): 95%
- EGFR % Activity Set1 (EGFR; Log[nM] 2.0): 95%
- EGFR % Activity Set2 (EGFR; Log[nM] 2.0): 88%
- EGFR % Activity Set3 (EGFR; Log[nM] 2.0): 81%
- EGFR % Activity Set1 (EGFR; Log[nM] 2.5): 74%
- EGFR % Activity Set2 (EGFR; Log[nM] 2.5): 63%
- EGFR % Activity Set3 (EGFR; Log[nM] 2.5): 67%
- EGFR % Activity Set1 (EGFR; Log[nM] 3.0): 36%
- EGFR % Activity Set2 (EGFR; Log[nM] 3.0): 35%
- EGFR % Activity Set3 (EGFR; Log[nM] 3.0): 43%
- EGFR % Activity Set1 (EGFR; Log[nM] 3.5): 18%
- EGFR % Activity Set2 (EGFR; Log[nM] 3.5): 16%
- EGFR % Activity Set3 (EGFR; Log[nM] 3.5): 23%
- EGFR % Activity Set1 (EGFR; Log[nM] 4.0): 8%
- EGFR % Activity Set2 (EGFR; Log[nM] 4.0): 7%
- EGFR % Activity Set3 (EGFR; Log[nM] 4.0): 10%
- EGFR % Activity Set1 (EGFR; Log[nM] 4.5): 3%
- EGFR % Activity Set2 (EGFR; Log[nM] 4.5): 4%
- EGFR % Activity Set3 (EGFR; Log[nM] 4.5): 3%
- EGFR % Activity Set1 (EGFR; Log[nM] 5.0): 1%
- EGFR % Activity Set2 (EGFR; Log[nM] 5.0): 1%
- EGFR % Activity Set3 (EGFR; Log[nM] 5.0): 2%
SMILES: Cc1ccc(Nc2ncnc3[nH]ccc23)cc1 [Compound 9, N^4-(4-methylphenyl)-7H-pyrrolo[2,3-d]pyrimidin-4-amine]

- IC50 (aurora A kinase (AURKA); [1]): 3.29 ± 0.15 µM
- IC50 (aurora A kinase (AURKA); [2]): 3.3 µM
- Aurora A % Activity Set1 (aurora A kinase (AURKA); Log[nM] 0): 95%
- Aurora A % Activity Set2 (aurora A kinase (AURKA); Log[nM] 0): 93%
- Aurora A % Activity Set3 (aurora A kinase (AURKA); Log[nM] 0): 100%
- Aurora A % Activity Set1 (aurora A kinase (AURKA); Log[nM] 1.0): 99%
- Aurora A % Activity Set2 (aurora A kinase (AURKA); Log[nM] 1.0): 96%
- Aurora A % Activity Set3 (aurora A kinase (AURKA); Log[nM] 1.0): 101%
- Aurora A % Activity Set1 (aurora A kinase (AURKA); Log[nM] 1.5): 99%
- Aurora A % Activity Set2 (aurora A kinase (AURKA); Log[nM] 1.5): 94%
- Aurora A % Activity Set3 (aurora A kinase (AURKA); Log[nM] 1.5): 105%
- Aurora A % Activity Set1 (aurora A kinase (AURKA); Log[nM] 2.0): 105%
- Aurora A % Activity Set2 (aurora A kinase (AURKA); Log[nM] 2.0): 104%
- Aurora A % Activity Set3 (aurora A kinase (AURKA); Log[nM] 2.0): 107%
- Aurora A % Activity Set1 (aurora A kinase (AURKA); Log[nM] 2.5): 104%
- Aurora A % Activity Set2 (aurora A kinase (AURKA); Log[nM] 2.5): 105%
- Aurora A % Activity Set3 (aurora A kinase (AURKA); Log[nM] 2.5): 103%
- Aurora A % Activity Set1 (aurora A kinase (AURKA); Log[nM] 3.0): 78%
- Aurora A % Activity Set2 (aurora A kinase (AURKA); Log[nM] 3.0): 75%
- Aurora A % Activity Set3 (aurora A kinase (AURKA); Log[nM] 3.0): 77%
- Aurora A % Activity Set1 (aurora A kinase (AURKA); Log[nM] 3.5): 53%
- Aurora A % Activity Set2 (aurora A kinase (AURKA); Log[nM] 3.5): 57%
- Aurora A % Activity Set3 (aurora A kinase (AURKA); Log[nM] 3.5): 52%
- Aurora A % Activity Set1 (aurora A kinase (AURKA); Log[nM] 4.0): 17%
- Aurora A % Activity Set2 (aurora A kinase (AURKA); Log[nM] 4.0): 16%
- Aurora A % Activity Set3 (aurora A kinase (AURKA); Log[nM] 4.0): 16%
- Aurora A % Activity Set1 (aurora A kinase (AURKA); Log[nM] 4.5): 7%
- Aurora A % Activity Set2 (aurora A kinase (AURKA); Log[nM] 4.5): 6%
- Aurora A % Activity Set3 (aurora A kinase (AURKA); Log[nM] 4.5): 7%
- Aurora A % Activity Set1 (aurora A kinase (AURKA); Log[nM] 5.0): 6%
- Aurora A % Activity Set2 (aurora A kinase (AURKA); Log[nM] 5.0): 5%
- Aurora A % Activity Set3 (aurora A kinase (AURKA); Log[nM] 5.0): 5%
- EGFR inhibition (in words) (EGFR): single-digit nanomolar EGFR inhibition
- IC50 (EGFR; [3]): 0.00598 ± 0.00061 µM
- IC50 (EGFR; [4]): 0.0059 µM
- EGFR % Activity Set1 (EGFR; Log[nM] 0): 57%
- EGFR % Activity Set2 (EGFR; Log[nM] 0): 58%
- EGFR % Activity Set3 (EGFR; Log[nM] 0): 56%
- EGFR % Activity Set1 (EGFR; Log[nM] 1.0): 38%
- EGFR % Activity Set2 (EGFR; Log[nM] 1.0): 37%
- EGFR % Activity Set3 (EGFR; Log[nM] 1.0): 40%
- EGFR % Activity Set1 (EGFR; Log[nM] 1.5): 13%
- EGFR % Activity Set2 (EGFR; Log[nM] 1.5): 16%
- EGFR % Activity Set3 (EGFR; Log[nM] 1.5): 16%
- EGFR % Activity Set1 (EGFR; Log[nM] 2.0): 7%
- EGFR % Activity Set2 (EGFR; Log[nM] 2.0): 7%
- EGFR % Activity Set3 (EGFR; Log[nM] 2.0): 8%
- EGFR % Activity Set1 (EGFR; Log[nM] 2.5): 2%
- EGFR % Activity Set2 (EGFR; Log[nM] 2.5): 4%
- EGFR % Activity Set3 (EGFR; Log[nM] 2.5): 3%
- EGFR % Activity Set1 (EGFR; Log[nM] 3.0): 1%
- EGFR % Activity Set2 (EGFR; Log[nM] 3.0): 1%
- EGFR % Activity Set3 (EGFR; Log[nM] 3.0): 2%
- EGFR % Activity Set1 (EGFR; Log[nM] 3.5): 0%
- EGFR % Activity Set2 (EGFR; Log[nM] 3.5): 1%
- EGFR % Activity Set3 (EGFR; Log[nM] 3.5): 0%
- EGFR % Activity Set1 (EGFR; Log[nM] 4.0): 0%
- EGFR % Activity Set2 (EGFR; Log[nM] 4.0): 0%
- EGFR % Activity Set3 (EGFR; Log[nM] 4.0): 0%
- EGFR % Activity Set1 (EGFR; Log[nM] 4.5): 0%
- EGFR % Activity Set2 (EGFR; Log[nM] 4.5): 0%
- EGFR % Activity Set3 (EGFR; Log[nM] 4.5): 0%
- EGFR % Activity Set1 (EGFR; Log[nM] 5.0): 0%
- EGFR % Activity Set2 (EGFR; Log[nM] 5.0): 0%
- EGFR % Activity Set3 (EGFR; Log[nM] 5.0): 0%
SMILES: Fc1cc(Nc2ncnc3[nH]ccc23)ccc1Cl [Compound 3, N^4-(3-fluoro-4-chlorophenyl)-7H-pyrrolo[2,3-d]pyrimidine-4-amine]
